The record followed here is patent US10544106B2, “Certain chemical entities, compositions, and methods” (NeuPharma, Inc., priority 2016, dated 2020).

A value given as a limit tells only on which side of the number the result lay.

Usually inhibition stands for the change of the read-out against control, counted positive when it falls. What is called IC50 is the concentration at which inhibition is half-maximal.

In one test the target is EGFR del746_750 (Homo sapiens (Human), UniProt P00533, DEL746-750). Put plainly: SelectScreen Lantha method (Eu-anti-GST antibody/tracer) for EGFR del746_750. In kind it is binding. Particulars: compound at 100 nM; read-out: % Inhibition against EGFR del745_750. How it is done: SelecteScreen's Lantha® method from Life Technologies was used to measure compound's activities in inhibition of EGFR del746_750.
EGFR del746_750, sequence (P00533 other isoform, or with tags, fused parts or gaps del E746-A750): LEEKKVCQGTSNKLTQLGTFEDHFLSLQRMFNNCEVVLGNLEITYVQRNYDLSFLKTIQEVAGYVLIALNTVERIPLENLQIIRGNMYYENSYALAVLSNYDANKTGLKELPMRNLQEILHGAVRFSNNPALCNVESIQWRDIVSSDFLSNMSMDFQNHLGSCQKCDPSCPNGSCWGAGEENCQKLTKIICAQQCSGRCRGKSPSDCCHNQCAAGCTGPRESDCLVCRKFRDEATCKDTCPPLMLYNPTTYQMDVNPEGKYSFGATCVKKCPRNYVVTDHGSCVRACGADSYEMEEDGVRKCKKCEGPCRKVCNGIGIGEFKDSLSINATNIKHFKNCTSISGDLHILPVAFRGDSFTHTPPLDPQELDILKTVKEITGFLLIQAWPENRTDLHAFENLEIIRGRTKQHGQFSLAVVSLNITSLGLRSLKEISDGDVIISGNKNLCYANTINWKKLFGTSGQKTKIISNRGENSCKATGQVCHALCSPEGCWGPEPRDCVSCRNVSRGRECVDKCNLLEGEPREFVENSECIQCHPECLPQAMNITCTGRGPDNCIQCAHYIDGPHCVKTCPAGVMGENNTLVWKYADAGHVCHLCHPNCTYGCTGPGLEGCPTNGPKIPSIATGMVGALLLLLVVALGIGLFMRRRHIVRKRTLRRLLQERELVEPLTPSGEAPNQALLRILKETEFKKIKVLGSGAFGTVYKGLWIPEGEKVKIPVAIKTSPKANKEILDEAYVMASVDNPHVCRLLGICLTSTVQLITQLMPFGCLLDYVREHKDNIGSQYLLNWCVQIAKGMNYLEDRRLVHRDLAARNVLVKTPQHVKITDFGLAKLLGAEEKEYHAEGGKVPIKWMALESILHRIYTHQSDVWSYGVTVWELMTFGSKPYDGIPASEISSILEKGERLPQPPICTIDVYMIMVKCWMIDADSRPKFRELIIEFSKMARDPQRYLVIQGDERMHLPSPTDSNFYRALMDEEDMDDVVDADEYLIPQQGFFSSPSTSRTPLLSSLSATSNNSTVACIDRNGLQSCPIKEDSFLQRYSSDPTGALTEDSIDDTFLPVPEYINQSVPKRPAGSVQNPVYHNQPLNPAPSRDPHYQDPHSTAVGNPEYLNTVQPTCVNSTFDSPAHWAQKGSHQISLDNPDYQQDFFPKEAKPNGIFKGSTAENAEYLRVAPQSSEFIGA
Test Compounds are screened in 1% DMSO (final) in the well. For 10 point titrations, 3-fold serial dilutions are conducted from the starting concentration. • Components for EGFR del745_750: • Kinase Buffer A: 50 mM HEPES pH 7.5, 0.01% BRIJ-35, 10 mM MgCl2, 1 mM EGTA • Kinase/Antibody Mixtures for EGFR del745_ 750: EGFR del745_ 750 10 nM, Antibody: Eu-anti-GST 2 nM, Tracer 199 10 nM, Inhibitor: SB202190 88.2 nM, All Kinase/Antibody Mixtures are diluted to a 2× working concentration in the appropriate Kinase Buffer • Tracer: The 4× AlexaFluor® labeled Tracer is prepared in Kinase Buffer.
To start the measurement, the following components are added to individual wells of bar-coded, low volume, white 384-well plate (Greiner Cat. #784207): • 1. 160 nL—100× Test Compound in 100% DMSO. • 2. 3.84 μL—Kinase Buffer: • 3. 8.0 μL—2× Kinase/Antibody Mixture • 4. 4.0 μL—4× Tracer The mixture above is then shaken for 30-second following by 60-minute incubation at room temperature. Finally the plate is read on fluorescence plate reader.
(§1) The Z′-LYTE assay was carried out with ATP concentration at Km. The scale utilized in Tables 2-6 is as follows: ++ more than 50% inhibition and + less than 50% inhibition.

The target of a further test is BTK (Homo sapiens (Human), UniProt Q06187). Put plainly: Z'-LYTE kinase inhibition assay against BTK. The class given is biochemical. The conditions noted are these: for inhibition at 0.1 µM: compound at 100 nM, ATP concentration at Km; for IC50: series of concentrations, GraphPad Prism 5. Summed up: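 Z′-LYTE FRET readout: 1.04-10.4 ng BTK with 2 μM Tyr 01 peptide, ATP at Km, in 50 mM HEPES pH 7.5, 10 mM MgCl2, 1 mM EGTA, 0.01% BRIJ-35, 1% DMSO. 60 min kinase reaction at room temperature, then 60 min development; IC50 from 10-point, 3-fold titrations.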
BTK, sequence (Q06187 whole entry): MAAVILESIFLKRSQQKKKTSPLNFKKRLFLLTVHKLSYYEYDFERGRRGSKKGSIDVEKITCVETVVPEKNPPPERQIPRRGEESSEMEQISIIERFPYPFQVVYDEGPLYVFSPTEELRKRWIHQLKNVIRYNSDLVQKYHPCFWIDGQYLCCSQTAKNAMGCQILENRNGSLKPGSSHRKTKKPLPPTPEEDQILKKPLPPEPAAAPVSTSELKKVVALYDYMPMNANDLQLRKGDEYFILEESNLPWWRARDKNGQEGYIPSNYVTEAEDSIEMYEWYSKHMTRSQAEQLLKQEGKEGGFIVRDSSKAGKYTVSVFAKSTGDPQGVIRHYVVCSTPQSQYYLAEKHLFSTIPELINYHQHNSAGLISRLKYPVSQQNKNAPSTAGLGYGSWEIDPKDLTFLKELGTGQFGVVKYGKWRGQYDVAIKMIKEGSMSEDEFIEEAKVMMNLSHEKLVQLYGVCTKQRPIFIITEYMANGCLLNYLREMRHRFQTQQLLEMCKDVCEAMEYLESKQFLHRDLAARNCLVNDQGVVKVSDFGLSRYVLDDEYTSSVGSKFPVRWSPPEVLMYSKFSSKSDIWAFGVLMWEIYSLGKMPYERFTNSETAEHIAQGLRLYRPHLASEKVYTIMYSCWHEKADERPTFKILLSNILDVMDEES

The next test concerns the target EGFR (ErbB1) T790M (Homo sapiens (Human), UniProt P00533, T790M). In words: Z'-LYTE kinase inhibition assay against EGFR T790M. In kind it is biochemical. The conditions noted are these: compound at 100 nM; ATP concentration at Km. As to the method: (§2) Inhibitory activities of compounds against BTK, EGFR T790M, EGFR L858R, and EGFR L858R/T790M were measured using Z′-LYTE® Method from Life Technologies as briefly described in the following.
(§3) Test Compounds are screened in 1% DMSO (final) in the well. For 10 point titrations, 3-fold serial dilutions are conducted from the starting concentration. All ATP Solutions are diluted to a 4× working concentration in Kinase Buffer (50 mM HEPES pH 7.5, 0.01% BRIJ-35, 10 mM MgCl2, 1 mM EGTA). Peptide/Kinase Mixtures are diluted to a 2× working concentration in the appropriate Kinase Buffers as described below. • (i) Peptide/Kinase Mixtures for measurement of EGFR (ErbB1) L858R: • The 2×EGFR (ErbB1) L858R/Tyr 04 mixture is prepared in 50 mM HEPES pH 7.5, 0.01% BRIJ-35, 10 mM MgCl2, 4 mM MnCl2. 1 mM EGTA, 2 mM DTT. The final 10 μL Kinase Reaction consists of 0.2-1.68 ng EGFR (ErbB1) L858R and 2 μM Tyr 04 in 50 mM HEPES pH 7.5, 0.01% BRIJ-35, 10 mM MgCl2, 2 mM MnCl2, 1 mM EGTA, 1 mM DTT. After the 1 hour Kinase Reaction incubation, 5 μL of a 1:64 dilution of Development Reagent B is added. • (ii) Peptide/Kinase Mixtures for measurement of EGFR (ErbB1) T790M: The 2×EGFR (ErbB1) T790M/Tyr 04 mixture is prepared in 50 mM HEPES pH 6.5, 0.01% BRIJ-35, 10 mM MgCl2, 1 mM EGTA, 0.02% NaN3. The final 10 μL Kinase Reaction consists of 3.9-30.2 ng EGFR (ErbB1) T790M and 2 μM Tyr 04 in 50 mM HEPES pH 7.0, 0.01% BRIJ-35, 10 mM MgCl2, 1 mM EGTA, 0.01% NaN3. After the 1 hour Kinase Reaction incubation, 5 μL of a 1:64 dilution of Development Reagent B is added. • (iii) Peptide/Kinase Mixtures for measurement of EGFR (ErbB1) L858R/T790M: The 2×EGFR (ErbB1) T790M L858R/Tyr 04 mixture is prepared in 50 mM HEPES pH 6.5, 0.01% BRIJ-35, 10 mM MgCl2, 1 mM EGTA, 0.02% NaN3. The final 10 μL Kinase Reaction consists of 0.38-4.22 ng EGFR (ErbB1) T790M L858R and 2 μM Tyr 04 in 50 mM HEPES pH 7.0, 0.01% BRIJ-35, 10 mM MgCl2, 1 mM EGTA, 0.01% NaN3. After the 1 hour Kinase Reaction incubation, 5 μL of a 1:64 dilution of Development Reagent B is added. • (iv) Peptide/Kinase Mixtures for measurement of BTK: The 2×BTK/Tyr 01 mixture is prepared in 50 mM HEPES pH 7.5, 0.010/BRIJ-35, 10 mM MgCl2, 1 mM EGTA. The final 10 μL Kinase Reaction consists of 1.04-10.4 ng BTK and 2 μM Tyr 01 in 50 mM HEPES pH 7.5, 0.01% BRIJ-35, 10 mM MgCl2, 1 mM EGTA. After the 1 hour Kinase Reaction incubation, 5 μL of a 1:256 dilution of Development Reagent B is added.
(§4) Reaction starts by 30-second shaking of mixture consisting of 2.5 μL 4× test compound, 5 μL 2× kinase reaction mixture and 2.5 μL 4×ATP Solution on Bar-coded Corning, low volume NBS, black 384-well plate (Corning Cat. #3676). Then the mixture is incubated for 60-minute at room temperature for the kinase reaction, followed by addition of 5 μL of a 1:1024 dilution of development reagent A and 30-second plate shake. The mixture is then incubated for another 60-minute at room temperature for development reaction. Finally fluorescence is read by plate reader.
as §1

In a further test the target is EGFR (ErbB1) L858R/T790M (Homo sapiens (Human), UniProt P00533, L858R/T790M). In words: Z'-LYTE kinase inhibition assay against EGFR L858R/T790M. In kind it is biochemical. The conditions noted are these: compound at 100 nM; ATP concentration at Km. As to the method: as §2, §3, §4, §1
EGFR (ErbB1) L858R/T790M, sequence (P00533 25-1210 T790M/L858R): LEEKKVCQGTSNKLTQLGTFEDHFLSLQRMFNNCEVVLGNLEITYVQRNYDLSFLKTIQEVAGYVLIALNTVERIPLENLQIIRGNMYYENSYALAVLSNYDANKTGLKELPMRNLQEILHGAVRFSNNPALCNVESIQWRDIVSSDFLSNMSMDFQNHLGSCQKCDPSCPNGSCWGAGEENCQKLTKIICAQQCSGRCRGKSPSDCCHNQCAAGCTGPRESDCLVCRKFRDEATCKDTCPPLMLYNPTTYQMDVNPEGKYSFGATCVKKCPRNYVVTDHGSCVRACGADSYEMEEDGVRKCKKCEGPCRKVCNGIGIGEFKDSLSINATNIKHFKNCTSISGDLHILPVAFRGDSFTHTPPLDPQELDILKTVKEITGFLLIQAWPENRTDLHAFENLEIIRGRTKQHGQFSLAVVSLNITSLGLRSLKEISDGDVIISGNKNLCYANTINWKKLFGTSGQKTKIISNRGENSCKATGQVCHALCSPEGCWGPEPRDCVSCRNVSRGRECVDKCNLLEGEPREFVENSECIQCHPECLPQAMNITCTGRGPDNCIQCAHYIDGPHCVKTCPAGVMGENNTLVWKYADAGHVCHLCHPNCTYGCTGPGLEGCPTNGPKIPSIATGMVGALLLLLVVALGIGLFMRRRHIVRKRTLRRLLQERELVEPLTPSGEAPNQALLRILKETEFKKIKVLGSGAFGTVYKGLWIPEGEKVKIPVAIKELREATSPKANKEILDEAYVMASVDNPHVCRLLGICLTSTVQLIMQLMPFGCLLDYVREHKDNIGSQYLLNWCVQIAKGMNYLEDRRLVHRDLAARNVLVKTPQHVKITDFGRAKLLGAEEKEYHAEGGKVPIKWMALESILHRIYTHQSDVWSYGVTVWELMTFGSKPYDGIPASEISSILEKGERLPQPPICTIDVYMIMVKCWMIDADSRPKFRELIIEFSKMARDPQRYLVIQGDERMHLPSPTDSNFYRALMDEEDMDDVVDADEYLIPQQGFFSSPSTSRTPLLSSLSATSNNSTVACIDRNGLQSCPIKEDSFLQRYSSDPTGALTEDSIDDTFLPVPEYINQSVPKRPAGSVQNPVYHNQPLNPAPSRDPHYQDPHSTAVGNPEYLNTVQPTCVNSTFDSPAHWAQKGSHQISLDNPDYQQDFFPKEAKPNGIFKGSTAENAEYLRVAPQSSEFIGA
Another test concerns the target EGFR (ErbB1) L858R (Homo sapiens (Human), UniProt P00533, L858R). In words: Z'-LYTE kinase inhibition assay against EGFR L858R. In kind it is biochemical. Particulars: compound at 100 nM; ATP concentration at Km. How it is done:
as §2, §3, §4, §1

The subject of a further test is OCI-Ly10 cells. Put plainly: OCI-Ly10 cell proliferation assay (Alamar Blue, 72 hours). The conditions noted are these: Homo sapiens. In kind it is cell-based. As to the method:
OCI-Ly10 cells were cultured in Iscove's DMEM supplemented with 20% fetal bovine serum and 1× penicillin/streptomycin/glutamine. The cells were maintained in T175 flasks under 5% CO2 in a 37 ° C. humidified incubator for 5 days prior to plating and assay.
Cells were pooled by centrifugation (200 ref, 8 minutes) and resuspended in fresh medium to a concentration of 2.00E+05 cells/ml. 200 µl of the cell suspension was added to each well (40,000 cells/well) of a black-walled 96 well plate to which 1 μl of compound (n=3 per concentration) in 100% DMSO (0.5% final concentration) was added per well. Vehicle and cell free wells were also included in the assay. The dosed cells were cultured under normal conditions for 72 hours.
Cell proliferation is measured using the dye Alamar Blue (resazurin). Resazurin is reduced to resorufin by cellular enzymes and is fluorescent (544 nm excitation, 612 nm emission). Fluorescence intensity is proportional to cell number. Resazurin was prepared in PBS to a stock concentration of 440 μM. 40 μl of the 440 μM resazurin stock solution was added 3 hours prior to the 72 hour termination of the assay. The plate was returned to normal culture conditions and fluorescence measurements were collected using a Cytation3 multimode plate reader (Biotek) at 72 hours.
The scale utilized in Table 8 is as follows: ++ less than 50 nM and + greater than 50 nM.
For orientation: Alamar Blue is a resazurin reagent that responds to reducing activity.

EGFR (ErbB1) L858R, sequence (P00533 25-1210 L858R): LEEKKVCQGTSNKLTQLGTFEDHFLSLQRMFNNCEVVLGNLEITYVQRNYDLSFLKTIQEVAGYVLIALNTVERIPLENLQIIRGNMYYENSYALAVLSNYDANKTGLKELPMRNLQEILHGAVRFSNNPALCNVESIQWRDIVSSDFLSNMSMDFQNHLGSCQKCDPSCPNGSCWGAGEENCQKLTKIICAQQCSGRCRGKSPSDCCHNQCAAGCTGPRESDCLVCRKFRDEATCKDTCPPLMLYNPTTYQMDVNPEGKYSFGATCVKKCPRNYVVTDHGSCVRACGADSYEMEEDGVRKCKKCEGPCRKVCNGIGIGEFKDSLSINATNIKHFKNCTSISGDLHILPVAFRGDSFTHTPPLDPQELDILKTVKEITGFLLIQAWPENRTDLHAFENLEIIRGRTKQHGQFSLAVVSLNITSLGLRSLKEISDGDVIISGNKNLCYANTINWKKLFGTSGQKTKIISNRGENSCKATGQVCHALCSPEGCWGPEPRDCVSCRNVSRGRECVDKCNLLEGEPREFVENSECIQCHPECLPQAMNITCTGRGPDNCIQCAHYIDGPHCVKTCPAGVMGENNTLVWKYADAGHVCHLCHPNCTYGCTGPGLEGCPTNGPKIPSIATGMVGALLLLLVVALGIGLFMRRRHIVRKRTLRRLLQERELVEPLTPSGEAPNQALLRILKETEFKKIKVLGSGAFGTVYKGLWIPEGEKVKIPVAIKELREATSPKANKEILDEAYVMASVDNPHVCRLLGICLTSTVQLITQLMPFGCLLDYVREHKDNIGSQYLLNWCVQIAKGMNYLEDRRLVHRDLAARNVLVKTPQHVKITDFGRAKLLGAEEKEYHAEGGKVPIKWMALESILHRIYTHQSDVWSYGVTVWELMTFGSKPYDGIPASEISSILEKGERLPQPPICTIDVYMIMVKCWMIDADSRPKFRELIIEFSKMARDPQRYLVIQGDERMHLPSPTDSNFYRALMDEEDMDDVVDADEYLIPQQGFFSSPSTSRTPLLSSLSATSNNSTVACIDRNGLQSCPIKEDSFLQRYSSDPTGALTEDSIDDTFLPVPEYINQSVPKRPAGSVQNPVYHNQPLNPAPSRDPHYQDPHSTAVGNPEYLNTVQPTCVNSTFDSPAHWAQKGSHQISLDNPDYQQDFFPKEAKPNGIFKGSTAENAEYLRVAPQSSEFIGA

For the compound `C=CC(=O)Nc1cccc(-c2cc(-c3cccnc3)cc3cnc(Nc4ccccc4)nc23)c1` [C076, N-(3-(2-(phenylamino)-6-(pyridin-3-yl)quinazolin-8-yl)phenyl)acrylamide], the inhibition at 0.1 µM is greater than 50% at EGFR del746_750; greater than 50% at BTK; less than 50% at EGFR (ErbB1) T790M; less than 50% at EGFR (ErbB1) L858R/T790M; greater than 50% against EGFR (ErbB1) L858R. The compound also returned an IC50 on BTK of less than 100 nM.
On to `C=CC(=O)Nc1cccc(-c2cc(-c3ccccc3)cc3cnc(Nc4ccccc4)nc23)c1` [C074, N-(3-(6-phenyl-2-(phenylamino)quinazolin-8-yl)phenyl)acrylamide], for which the inhibition at 0.1 µM on EGFR del746_750 is greater than 50%; at BTK, greater than 50%; at EGFR (ErbB1) T790M it was less than 50%; against EGFR (ErbB1) L858R/T790M, less than 50%; against EGFR (ErbB1) L858R it was greater than 50%. This compound displayed a half-inhibitory concentration (IC50) at BTK of less than 100 nM.
As to `C=CC(=O)Nc1cccc(-c2cc(-c3ccccc3Cl)cc3cncnc23)c1` [C013, N-(3-(6-(2-chlorophenyl)quinazolin-8-yl)phenyl)acrylamide], the inhibition at 0.1 µM on EGFR del746_750 was greater than 50%; at BTK, greater than 50%; against EGFR (ErbB1) T790M, less than 50%; against EGFR (ErbB1) L858R/T790M it was less than 50%; against EGFR (ErbB1) L858R, greater than 50%. Further, the IC50 against BTK is less than 100 nM.
As for `C=CC(=O)Nc1cccc(-c2cc(-c3ccccc3Cl)cc3cnc(N)nc23)c1` [C003, N-(3-(2-amino-6-(2-chlorophenyl)quinazolin-8-yl)phenyl)acrylamide], the inhibition at 0.1 µM is greater than 50% on EGFR del746_750; greater than 50% against BTK; less than 50% at EGFR (ErbB1) T790M; less than 50% at EGFR (ErbB1) L858R/T790M; greater than 50% at EGFR (ErbB1) L858R. The same compound yielded an IC50 against BTK of less than 100 nM.
In the case of `C=CC(=O)N1CCCC(c2cc(-c3ccc(C)nc3)cc3cnc(N)nc23)C1` (centres unmarked) [C042, 1-(3-(2-amino-6-(6-methylpyridin-3-yl)quinazolin-8-yl)piperidin-1-yl)prop-2-en-1-one], the inhibition at 0.1 µM at EGFR del746_750, against BTK, against EGFR (ErbB1) T790M, against EGFR (ErbB1) L858R/T790M and against EGFR (ErbB1) L858R was less than 50% throughout.
For the compound `C=CC(=O)Nc1cccc(-c2cc(-c3ccc(C(=O)Nc4ccccn4)cc3)cc3cncnc23)c1` [C008, 4-(8-(3-acrylamidophenyl)quinazolin-6-yl)-N-(pyridin-2-yl)benzamide], the inhibition at 0.1 µM is less than 50% on EGFR del746_750; greater than 50% at BTK; less than 50% against EGFR (ErbB1) T790M; less than 50% against EGFR (ErbB1) L858R/T790M; less than 50% at EGFR (ErbB1) L858R. Further, the IC50 is less than 100 nM against BTK and less than 50 nM with OCI-Ly10 cells.
As for `C=CC(=O)N1CCC(c2cc(-c3ccc(C(=O)Nc4cc(Cl)ccn4)cc3)n3cnccc23)C1` (centres unmarked) [C064, 4-(5-(1-acryloylpyrrolidin-3-yl)pyrrolo[1,2-c]pyrimidin-7-yl)-N-(4-chloropyridin-2-yl)benzamide], the inhibition at 0.1 µM was greater than 50% on BTK, less than 50% at EGFR (ErbB1) T790M, less than 50% against EGFR (ErbB1) L858R/T790M and less than 50% against EGFR (ErbB1) L858R. Further, the IC50 against BTK was less than 100 nM.
As for `C=CC(=O)Nc1cccc(-c2cc(-c3ccc(C(=O)Nc4cccc(C(F)(F)F)c4)cc3)cc3cncnc23)c1` [C051, 4-(8-(3-acrylamidophenyl)quinazolin-6-yl)-N-(3-(trifluoromethyl)phenyl)benzamide], the inhibition at 0.1 µM at EGFR del746_750, on BTK, at EGFR (ErbB1) T790M, against EGFR (ErbB1) L858R/T790M and at EGFR (ErbB1) L858R was greater than 50% each time. The compound also registered a half-maximal inhibitory concentration (IC50) at BTK of less than 100 nM.
With `C=CC(=O)Nc1cccc(-c2cc(-c3cccc(F)c3)cc3cncnc23)c1` [C073, N-(3-(6-(3-fluorophenyl)quinazolin-8-yl)phenyl)acrylamide], the inhibition at 0.1 µM on EGFR del746_750 is greater than 50%; at BTK, greater than 50%; on EGFR (ErbB1) T790M, less than 50%; against EGFR (ErbB1) L858R/T790M it was less than 50%; against EGFR (ErbB1) L858R, greater than 50%. At BTK, this compound returned an IC50 of less than 100 nM.
